Source: US7109338B2, “1,2-disubstituted 1,4-dihydro-4-oxoquinoline compounds” (priority 1999, dated 2006)
Values after ≈ are worked out from the molar mass of the structure shown.

Assays:
[1] = tested on: Poliovirus type 1 (Polio 1, Sabin); experiment: microbe, parasite or virus in culture; format: cell-based
[2] = tested on: human rhinovirus type 1B (HRV 1B, B632); experiment: Anti-rhinovirus activity (MTT), HRV1B; format: cell-based; settings: HeLa (Ohio strain) cells, MTT method, 33° C.
[3] = tested on: coxsackievirus type A7 (CA7); experiment: In vitro anti-picornavirus activity (MTT), CA7; format: cell-based; settings: HeLa-S3 cells, MTT method, 37° C.
[4] = tested on: coxsackievirus type B4 (CB4,JVB); experiment: In vitro anti-picornavirus activity (MTT), CB4; format: cell-based; settings: HeLa cells, MTT method, 37° C.
[5] = tested on: HeLa-S3 cells; experiment: Cytotoxicity (MTT, without virus), HeLa-S3; settings: HeLa-S3, no virus, incubated for 4 days
[6] = tested on: HRV 89 (41617-Gallo); experiment: Anti-rhinovirus activity (MTT), HRV89; format: cell-based, human rhinovirus; settings: HeLa (Ohio strain) cells, MTT method, 33° C.
[7] = tested on: HRV 2 (HGP); experiment: Anti-rhinovirus activity (MTT), HRV2; format: cell-based, human rhinovirus; settings: HeLa (Ohio strain) cells, MTT method, 33° C.
[8] = tested on: HeLa (Ohio strain)cells; experiment: Cytotoxicity (MTT, without virus), HeLa(Ohio); settings: HeLa(Ohio), no virus, incubated for 4 days
[9] = tested on: HeLa cells; experiment: Cytotoxicity (MTT, without virus), HeLa; settings: HeLa, no virus, incubated for 4 days
[10] = tested on: echovirus type 11 (Echo 11, Gregory); experiment: In vitro anti-picornavirus activity (MTT), Echo 11; format: cell-based; settings: HeLa-S3 cells, MTT method, 37° C.

CCn1c(-c2ccn(C)c2)cc(=O)c2cc(C(C)C)ccc21 [Compound A307]
IC50 Polio 1 [1]: 0.79 µg/mL (≈ 2.68 µM) | IC50 HRV1B [2]: 0.83 µg/mL (≈ 2.82 µM) | IC50 CA7 [3]: 1.9 µg/mL (≈ 6.45 µM) | IC50 CB4 [4]: 1.3 µg/mL (≈ 4.42 µM) | Cytotoxicity CC50 HeLa-S3 [5]: >20 µg/mL | IC50 HRV89 [6]: 0.86 µg/mL (≈ 2.92 µM) | IC50 HRV2 [7]: 0.39 µg/mL (≈ 1.32 µM) | Cytotoxicity CC50 HeLa(Ohio) [8]: 18 µg/mL | Cytotoxicity CC50 HeLa [9]: >20 µg/mL | IC50 Echo 11 [10]: 0.34 µg/mL (≈ 1.15 µM)

CCCOc1ccc2c(c1)c(=O)c(C)c(-c1ccccc1)n2CC [Compound A32]
IC50 Polio 1 [1]: 0.93 µg/mL (≈ 2.89 µM) | IC50 HRV1B [2]: 1.0 µg/mL (≈ 3.11 µM) | IC50 CA7 [3]: 1.9 µg/mL (≈ 5.91 µM) | IC50 CB4 [4]: >3.3 µg/mL | Cytotoxicity CC50 HeLa-S3 [5]: >10 µg/mL | IC50 HRV89 [6]: 0.77 µg/mL (≈ 2.4 µM) | IC50 HRV2 [7]: 0.55 µg/mL (≈ 1.71 µM) | Cytotoxicity CC50 HeLa(Ohio) [8]: >10 µg/mL | Cytotoxicity CC50 HeLa [9]: 9.7 µg/mL | IC50 Echo 11 [10]: 0.40 µg/mL (≈ 1.24 µM)

CCn1c(-c2cccs2)c(C)c(=O)c2cc(C(C)C)ccc21 [Compound A311]
IC50 Polio 1 [1]: 0.67 µg/mL (≈ 2.15 µM) | IC50 HRV1B [2]: 1.0 µg/mL (≈ 3.21 µM) | IC50 CA7 [3]: 3.3 µg/mL (≈ 10.6 µM) | IC50 CB4 [4]: 2.0 µg/mL (≈ 6.42 µM) | Cytotoxicity CC50 HeLa-S3 [5]: >10 µg/mL | IC50 HRV89 [6]: 1.2 µg/mL (≈ 3.85 µM) | IC50 HRV2 [7]: 0.53 µg/mL (≈ 1.7 µM) | Cytotoxicity CC50 HeLa(Ohio) [8]: >10 µg/mL | Cytotoxicity CC50 HeLa [9]: 6.8 µg/mL | IC50 Echo 11 [10]: 0.42 µg/mL (≈ 1.35 µM)

CCn1c(-c2ccccc2)c(C)c(=O)c2cc(NCC(C)C)ccc21.Cl [Compound A160]
IC50 Polio 1 [1]: 0.55 µg/mL | IC50 HRV1B [2]: 0.73 µg/mL | IC50 CA7 [3]: 2.7 µg/mL | IC50 CB4 [4]: 2.9 µg/mL | Cytotoxicity CC50 HeLa-S3 [5]: >5 µg/mL | IC50 HRV89 [6]: 0.78 µg/mL | IC50 HRV2 [7]: 0.45 µg/mL | Cytotoxicity CC50 HeLa(Ohio) [8]: >5 µg/mL | Cytotoxicity CC50 HeLa [9]: >5 µg/mL | IC50 Echo 11 [10]: 0.27 µg/mL

CCn1c(-c2ccccc2)cc(=O)c2c(C)c(OCC(C)C)ccc21 [Compound A187]
IC50 Polio 1 [1]: 0.53 µg/mL (≈ 1.58 µM) | IC50 HRV1B [2]: 0.71 µg/mL (≈ 2.12 µM) | IC50 CA7 [3]: 3.0 µg/mL (≈ 8.94 µM) | IC50 CB4 [4]: 0.99 µg/mL (≈ 2.95 µM) | Cytotoxicity CC50 HeLa-S3 [5]: >4 µg/mL | IC50 HRV89 [6]: 0.15 µg/mL (≈ 0.447 µM) | IC50 HRV2 [7]: 0.57 µg/mL (≈ 1.7 µM) | Cytotoxicity CC50 HeLa(Ohio) [8]: >4 µg/mL | Cytotoxicity CC50 HeLa [9]: >4 µg/mL | IC50 Echo 11 [10]: 0.21 µg/mL (≈ 0.626 µM)

CCn1c(-c2ccccc2)c(C)c(=O)c2cc(N3CCOCC3)ccc21 [Compound A169]
IC50 Polio 1 [1]: 4.3 µg/mL (≈ 12.3 µM) | IC50 HRV1B [2]: 8.2 µg/mL (≈ 23.5 µM) | IC50 CA7 [3]: >50 µg/mL | IC50 CB4 [4]: 18 µg/mL (≈ 51.7 µM) | Cytotoxicity CC50 HeLa-S3 [5]: >50 µg/mL | IC50 HRV89 [6]: 5.4 µg/mL (≈ 15.5 µM) | IC50 HRV2 [7]: 1.0 µg/mL (≈ 2.87 µM) | Cytotoxicity CC50 HeLa(Ohio) [8]: >50 µg/mL | Cytotoxicity CC50 HeLa [9]: >50 µg/mL | IC50 Echo 11 [10]: 1.1 µg/mL (≈ 3.16 µM)

CCn1c(-c2ccc(Br)s2)cc(=O)c2cc(C(C)C)ccc21 [Compound A317]
IC50 Polio 1 [1]: 0.81 µg/mL (≈ 2.15 µM) | IC50 HRV1B [2]: 0.82 µg/mL (≈ 2.18 µM) | IC50 CA7 [3]: 2.6 µg/mL (≈ 6.91 µM) | IC50 CB4 [4]: 1.1 µg/mL (≈ 2.92 µM) | Cytotoxicity CC50 HeLa-S3 [5]: >5 µg/mL | IC50 HRV89 [6]: 0.40 µg/mL (≈ 1.06 µM) | IC50 HRV2 [7]: 0.43 µg/mL (≈ 1.14 µM) | Cytotoxicity CC50 HeLa(Ohio) [8]: >5 µg/mL | Cytotoxicity CC50 HeLa [9]: >5 µg/mL | IC50 Echo 11 [10]: 0.35 µg/mL (≈ 0.93 µM)

Cc1ccc(-n2c(-c3ccccc3)c(C)c(=O)c3cc(C(C)C)ccc32)cc1 [Compound A325]
IC50 Polio 1 [1]: >2.5 µg/mL | IC50 HRV1B [2]: >2.5 µg/mL | IC50 CA7 [3]: >2.5 µg/mL | IC50 CB4 [4]: >2.5 µg/mL | Cytotoxicity CC50 HeLa-S3 [5]: >2.5 µg/mL | IC50 HRV89 [6]: 0.022 µg/mL (≈ 0.0599 µM) | IC50 HRV2 [7]: 0.066 µg/mL (≈ 0.18 µM) | Cytotoxicity CC50 HeLa(Ohio) [8]: >2.5 µg/mL | Cytotoxicity CC50 HeLa [9]: >2.5 µg/mL | IC50 Echo 11 [10]: >2.5 µg/mL

Cc1cc(-c2cc(=O)c3cc(C(C)C)ccc3n2C)ccc1OC(C)C [Compound A100]
IC50 Polio 1 [1]: 0.57 µg/mL (≈ 1.63 µM) | IC50 HRV1B [2]: 0.85 µg/mL (≈ 2.43 µM) | IC50 CA7 [3]: 4.5 µg/mL (≈ 12.9 µM) | IC50 CB4 [4]: 1.4 µg/mL (≈ 4.01 µM) | Cytotoxicity CC50 HeLa-S3 [5]: >5 µg/mL | IC50 HRV89 [6]: 0.20 µg/mL (≈ 0.572 µM) | IC50 HRV2 [7]: 0.43 µg/mL (≈ 1.23 µM) | Cytotoxicity CC50 HeLa(Ohio) [8]: >5 µg/mL | Cytotoxicity CC50 HeLa [9]: >5 µg/mL | IC50 Echo 11 [10]: 0.24 µg/mL (≈ 0.687 µM)

CC(C)c1ccc2c(c1)c(=O)cc(-c1ccc(Cl)c(Cl)c1)n2C [Compound A61]
IC50 Polio 1 [1]: 0.73 µg/mL (≈ 2.11 µM) | IC50 HRV1B [2]: 0.64 µg/mL (≈ 1.85 µM) | IC50 CA7 [3]: >4 µg/mL | IC50 CB4 [4]: >4 µg/mL | Cytotoxicity CC50 HeLa-S3 [5]: >4 µg/mL | IC50 HRV89 [6]: 0.38 µg/mL (≈ 1.1 µM) | IC50 HRV2 [7]: 0.65 µg/mL (≈ 1.88 µM) | Cytotoxicity CC50 HeLa(Ohio) [8]: >4 µg/mL | Cytotoxicity CC50 HeLa [9]: >4 µg/mL | IC50 Echo 11 [10]: 0.40 µg/mL (≈ 1.16 µM)
